Target: T1, Dopamine beta hydroxylase (Homo sapiens, UniProt P09172)
T1 construct: 125 μl of plasma; tissue Instituto Português do Sangue Transplantação; host or cells: human plasma from healthy donors
T1 sequence (P09172 40-617 limits assumed): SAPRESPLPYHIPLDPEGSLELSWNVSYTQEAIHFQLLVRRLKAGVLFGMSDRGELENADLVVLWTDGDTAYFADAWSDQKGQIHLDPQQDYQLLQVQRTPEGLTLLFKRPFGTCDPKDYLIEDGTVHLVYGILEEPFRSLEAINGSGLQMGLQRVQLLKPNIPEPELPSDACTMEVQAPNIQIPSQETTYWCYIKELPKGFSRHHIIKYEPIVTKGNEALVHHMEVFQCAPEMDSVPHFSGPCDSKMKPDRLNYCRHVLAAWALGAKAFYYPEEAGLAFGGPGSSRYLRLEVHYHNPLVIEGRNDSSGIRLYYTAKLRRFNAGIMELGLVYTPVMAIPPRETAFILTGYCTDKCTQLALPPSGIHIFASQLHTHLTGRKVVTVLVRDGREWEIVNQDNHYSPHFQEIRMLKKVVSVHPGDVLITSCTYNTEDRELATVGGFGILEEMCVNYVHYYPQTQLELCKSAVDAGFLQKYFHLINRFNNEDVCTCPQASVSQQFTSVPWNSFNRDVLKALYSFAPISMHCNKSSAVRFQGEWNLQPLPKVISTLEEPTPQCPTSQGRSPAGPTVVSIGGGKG
Assay: Dopamine beta hydroxylase activity in human plasma
Type: biochemical
Details: for Plasma (0.1 μM), activity in % of control: inhibitor 0.1 μM; for Plasma (1 μM), activity in % of control: inhibitor 1 μM; for Plasma (0.01 μM), activity in % of control: inhibitor 0.01 μM
Method in brief: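 Octopamine production from tyramine over 45 min at 37° C, measured photometrically at 330 nm after SCX extraction and periodate oxidation against an octopamine standard curve, indicates plasma DβH activity. Compounds tested at final 10, 100 and 1000 nM in human plasma, pH 5.0 cofactor buffer, 10 min preincubation; results as % of control.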

Row | Plasma (0.1 μM), activity in % of control | Plasma (1 μM), activity in % of control | Plasma (0.01 μM), activity in % of control | SMILES
1 | 33.1 % of control | – | 94.2 % of control | OCCc1[nH]c(=S)n2c1C[C@H](c1c(F)ccc(Br)c1F)C2 [Example 173, (R)-6-(3-bromo-2,6-difluorophenyl)-1-(2-hydroxyethyl)-2,5,6,7-tetrahydro-3H-pyrrolo[1,2-c]imidazole-3-thione]
2 | 51.6 % of control | 7.6 % of control | – | N#CCNC(=O)Cc1[nH]c(=S)n2c1C[C@H](c1c(F)c(F)cc(F)c1F)C2 [Example 27, (R)—N-(cyanomethyl)-2-(6-(2,3,5,6-tetrafluorophenyl)-3-thioxo-2,5,6,7-tetrahydro-3H-pyrrolo[1,2-c]imidazol-1-yl)acetamide]
3 | 92.3 % of control | – | 99.8 % of control | Cn1ccnc1CCc1[nH]c(=S)n2c1C[C@H](c1c(F)c(F)cc(F)c1F)C2 [Example 217, (R)-1-(2-(1-methyl-1H-imidazol-2-yl)ethyl)-6-(2,3,5,6-tetrafluorophenyl)-2,5,6,7-tetrahydro-3H-pyrrolo[1,2-c]imidazole-3-thione]
4 | 8.4 % of control | – | 55.7 % of control | O=C(Cc1[nH]c(=S)n2c1C[C@H](c1c(F)ccc(Br)c1F)C2)NC1CCS(=O)(=O)CC1 [Example 130, (R)-2-(6-(3-bromo-2,6-difluorophenyl)-3-thioxo-2,5,6,7-tetrahydro-3H-pyrrolo[1,2-c]imidazol-1-yl)-N-(1,1-dioxidotetrahydro-2H-thiopyran-4-yl)acetamide]
5 | 19.9 % of control | – | 68.6 % of control | CN(CCc1[nH]c(=S)n2c1[C@@H]1C[C@]1(c1cc(Br)ccc1F)C2)C1CCCC1.F [Example 190, (5aS,6aR)-5a-(5-bromo-2-fluorophenyl)-1-(2-(cyclopentyl(methyl)amino)ethyl)-5,5a,6,6a-tetrahydrocyclopropa[3,4]pyrrolo[1,2-c]imidazole-3(2H)-thione hydrofluoride]
6 | 99.1 % of control | 47.9 % of control | – | CCOC(=O)Cc1[nH]c(=S)n2c1C[C@H](c1cc(F)ccc1F)C2 [Example 61, Ethyl (R)-2-(6-(2,5-difluorophenyl)-3-thioxo-2,5,6,7-tetrahydro-3H-pyrrolo[1,2-c]imidazol-1-yl)acetate]
7 | 73.5 % of control | – | 94.6 % of control | Cl.Fc1cc(F)c(F)c([C@H]2Cc3c(CN4CCCC4)[nH]c(=S)n3C2)c1F [Example 210, (R)-1-(pyrrolidin-1-ylmethyl)-6-(2,3,5,6-tetrafluorophenyl)-2,5,6,7-tetrahydro-3H-pyrrolo[1,2-c]imidazole-3-thione hydrochloride]
8 | 57.7 % of control | – | 73.5 % of control | Cn1c(CC(=O)N2CCCO2)c2n(c1=S)C[C@H](c1c(F)ccc(Cl)c1F)C2 [Example 444, (S)-2-(6-(3-chloro-2,6-difluorophenyl)-2-methyl-3-thioxo-2,5,6,7-tetrahydro-3H-pyrrolo[1,2-c]imidazol-1-yl)-1-(isoxazolidin-2-yl)ethan-1-one]
9 | 38.3 % of control | – | 84.3 % of control | Cn1c(CC(=O)O)c2n(c1=S)C[C@@H](c1c(F)c(F)cc(F)c1F)C2 [Example 229, (R)-2-(2-methyl-6-(2,3,5,6-tetrafluorophenyl)-3-thioxo-3,5,6,7-tetrahydro-2H-pyrrolo[1,2-c]imidazol-1-yl)acetic Acid]

The next lines start with the compound.

Row | SMILES | Plasma (0.1 μM), activity in % of control | Plasma (1 μM), activity in % of control | Plasma (0.01 μM), activity in % of control
10 | CNC(=O)Cc1[nH]c(=S)n2c1[C@@H]1C[C@]1(c1cc(F)cc(Cl)c1)C2 [Example 68, 2-((5aS,6aR)-5a-(3-chloro-5-fluorophenyl)-3-thioxo-2,3,5,5a,6,6a-hexahydrocyclopropa[3,4]pyrrolo[1,2-c]imidazol-1-yl)-N-methylacetamide] | 55.6 % of control | 13.5 % of control | –
11 | O=C(Cc1[nH]c(=S)n2c1C[C@H](c1c(F)c(F)cc(F)c1F)C2)NC[C@@H]1CCCO1 [Example 395, 2-((R)-6-(2,3,5,6-tetrafluorophenyl)-3-thioxo-2,5,6,7-tetrahydro-3H-pyrrolo[1,2-c]imidazol-1-yl)-N—(((S)-tetrahydrofuran-2-yl)methyl)acetamide] | 47.8 % of control | – | 96.9 % of control
12 | Fc1ccc(Cl)cc1[C@]12C[C@H]1c1c(CCNc3cccnc3)[nH]c(=S)n1C2 [Example 197, (5aS,6aR)-5a-(5-chloro-2-fluorophenyl)-1-(2-(pyridin-3-ylamino)ethyl)-5,5a,6,6a-tetrahydrocyclopropa[3,4]pyrrolo[1,2-c]imidazole-3(2H)-thione] | 29.4 % of control | – | 75.9 % of control
13 | CN1CC(NC(=O)Cc2c3n(c(=S)n2C)C[C@@H](c2c(F)ccc(F)c2F)C3)CCC1=O (stereo partly drawn) [Example 371, 2-((R)-2-methyl-3-thioxo-6-(2,3,6-trifluorophenyl)-2,5,6,7-tetrahydro-3H-pyrrolo[1,2-c]imidazol-1-yl)-N-(1-methyl-6-oxopiperidin-3-yl)acetamide] | 17.7 % of control | – | 79.0 % of control
14 | CN1CCC(NC(=O)Cc2c3n(c(=S)n2C)C[C@@H](c2c(F)ccc(F)c2F)C3)C1=O (stereo partly drawn) [Example 388, N-(1-methyl-2-oxopyrrolidin-3-yl)-2-((R)-2-methyl-3-thioxo-6-(2,3,6-trifluorophenyl)-2,5,6,7-tetrahydro-3H-pyrrolo[1,2-c]imidazol-1-yl)acetamide] | 71.1 % of control | – | 80.8 % of control
15 | Cn1c(CC(=O)N2CCS(=O)(=O)CC2)c2n(c1=S)C[C@H](c1c(F)ccc(Br)c1F)C2 [Example 235, (S)-2-(6-(3-bromo-2,6-difluorophenyl)-2-methyl-3-thioxo-2,5,6,7-tetrahydro-3H-pyrrolo[1,2-c]imidazol-1-yl)-1-(1,1-dioxidothiomorpholino)ethan-1-one] | 1.2 % of control | – | 11.4 % of control
16 | O=C(Cc1[nH]c(=S)n2c1[C@@H]1C[C@]1(c1cc(Br)ccc1F)C2)N1CCOCC1 [Example 157] | 24.2 % of control | – | 84.2 % of control
17 | O=C(Cc1[nH]c(=S)n2c1C[C@@H](c1c(F)ccc(Br)c1F)C2)NCC1CC1 [Example 95, (S)-2-(6-(3-bromo-2,6-difluorophenyl)-3-thioxo-2,5,6,7-tetrahydro-3H-pyrrolo[1,2-c]imidazol-1-yl)-N-(cyclopropylmethyl)acetamide] | 24.0 % of control | 0 % of control | –
18 | Cl.Fc1ccc(F)c([C@H]2Cc3c(CCNCC4CCOCC4)[nH]c(=S)n3C2)c1F [Example 473, (R)-1-(2-(((tetrahydro-2H-pyran-4-yl)methyl)amino)ethyl)-6-(2,3,6-trifluorophenyl)-2,5,6,7-tetrahydro-3H-pyrrolo[1,2-c]imidazole-3-thione hydrochloride] | 46.2 % of control | – | 98.9 % of control
19 | Cn1c(CC(=O)N2CC[C@@H](C#N)C2)c2n(c1=S)C[C@@H](c1c(F)ccc(F)c1F)C2 [Example 390, (R)-1-(2-((R)-2-methyl-3-thioxo-6-(2,3,6-trifluorophenyl)-2,5,6,7-tetrahydro-3H-pyrrolo[1,2-c]imidazol-1-yl)acetyl)pyrrolidine-3-carbonitrile] | 52.0 % of control | – | 75.0 % of control
20 | O=C(Cc1[nH]c(=S)n2c1C[C@@H](c1c(F)ccc(Cl)c1F)C2)NC1CCS(=O)(=O)CC1 [Example 112, (S)-2-(6-(3-chloro-2,6-difluorophenyl)-3-thioxo-2,5,6,7-tetrahydro-3H-pyrrolo[1,2-c]imidazol-1-yl)-N-(1,1-dioxidotetrahydro-2H-thiopyran-4-yl)acetamide] | 0 % of control | – | 9.9 % of control
21 | CN(C(=O)Cc1c2n(c(=S)n1C)C[C@@H](c1c(F)ccc(F)c1F)C2)[C@@H]1CCOC1 [Example 455, N-methyl-2-((R)-2-methyl-3-thioxo-6-(2,3,6-trifluorophenyl)-2,5,6,7-tetrahydro-3H-pyrrolo[1,2-c]imidazol-1-yl)-N—((R)-tetrahydrofuran-3-yl)acetamide] | 50.2 % of control | – | 131.0 % of control

From patent US11434242B2, “Dopamine-b-hydroxylase inhibitors” (BIAL-PORTELA & Cª, S.A., priority 2017, dated 2022)
